Values joined by “and” are separate entries in the source; they are usually repeats but may differ in a detail not shown here. Identical values can stand only once. After the bases stand the sugars from the 5' end (letter, count) and the backbone: PS all phosphorothioate, else s phosphorothioate and o phosphodiester by linkage. Methylation of C is not given here. e = 2'-O-(2-methoxyethyl) (MOE); k = constrained ethyl (cEt); d = 2'-deoxy (DNA)

For this data set, the target named is MALAT1. Conditions: ASO, A431, 0.005 µM.
In the case of GCTAAGATAGCAGCAC (sugars k3 d10 k3, PS), the target mRNA inhibition stood at 29%.
In the case of TCAACATTTGGCCTAC (sugars k3 d10 k3, PS), the target mRNA inhibition was 21%.
With CAAGAACTAGCACCTG (sugars k3 d10 k3, PS), the target mRNA inhibition was 7%.
For the sequence “ATGGAGGTATGACATATAAT (sugars e5 d10 e5, PS)”, the target mRNA inhibition is 22% and 25%.
The figure for GCTTCCTACTTTTCAG (sugars k3 d10 k3, PS) is 44%.
As to CCACGGCCCGCACGGA (sugars k3 d10 k3, PS), the target mRNA inhibition came to 6%.
Turning to TCCCCAATCAAGATTT (sugars k3 d10 k3, PS), the target mRNA inhibition was determined as 18%.
As for TCATTGGGAGTTACTT (sugars k3 d10 k3, PS), the target mRNA inhibition was 57%.
The result for CACTCTAAGATTGTAA (sugars k3 d10 k3, PS) reads 33%.
Take GAATCCTGTCTGCTGC (sugars k3 d10 k3, PS): the target mRNA inhibition turned out to be 33%.
The figure for CAGACAAGATTCATGA (sugars k3 d10 k3, PS) is 19%.
The result for TAAGCAATATCTTAGT (sugars k3 d10 k3, PS) reads 16%.
For GGAGAACAACTCGCAT (sugars k3 d10 k3, PS), the target mRNA inhibition is 17%.
Consider ACCCAGTGGCTCATAT (sugars k3 d10 k3, PS), for which the target mRNA inhibition amounted to 16%.
Regarding TTGTGGTTATAGCTTG (sugars k3 d10 k3, PS), the target mRNA inhibition is 68% and 93%.
Consider GCATTACAGTTCTTGA (sugars k3 d10 k3, PS), for which the target mRNA inhibition is 72% and 75%.
As to ATGTTAAGAGAAGCCC (sugars k3 d10 k3, PS), the target mRNA inhibition was -17%.
The figure for TACCAACCACTCGCTT (sugars k3 d10 k3, PS) is 1%; for TCCTGATCTGGTCCAT (sugars k3 d10 k3, PS) it is 42%; for TTCATTACCCCAACTA (sugars k3 d10 k3, PS) it is 42%.
For the sequence CGCCTCTTAAAGCACT (sugars k3 d10 k3, PS), the target mRNA inhibition was -12%.
The figure for AAACCTGGGCTCCCGG (sugars k3 d10 k3, PS) is 20%.
Regarding CAGTCCTTTACAGAAG (sugars k3 d10 k3, PS), the target mRNA inhibition turned out to be 12%.
The figure for AGCATACCTTAACATC (sugars k3 d10 k3, PS) is 19%; for TGAGGGACAGTAGGTA (sugars k3 d10 k3, PS) it is 18%; for CCTGGTTAGGTATGAG (sugars k3 d10 k3, PS) it is 19%.
On to AATTAATGCACTGGTA (sugars k3 d10 k3, PS), for which the target mRNA inhibition was 19%.
Turning to CAGACCTTCTGAACCG (sugars k3 d10 k3, PS), the target mRNA inhibition amounted to 10%.
The figure for ATGGAGGTATGACATA (sugars k3 d10 k3, PS) is 20%; for ATTATATGCTCATCAC (sugars k3 d10 k3, PS) it is 51%; for TCGCCTTCAAATTATT (sugars k3 d10 k3, PS) it is 35%.
As to ATACTCTTCCAAGGAT (sugars k3 d10 k3, PS), the target mRNA inhibition was 35%.
With CGAAACTCCCCCATTA (sugars k3 d10 k3, PS), the target mRNA inhibition amounted to 15%.
As for CCCCCCCGCCTCAGTT (sugars k3 d10 k3, PS), the target mRNA inhibition was 15%.
GGTCAATAGTGTAAAA (sugars k3 d10 k3, PS): the target mRNA inhibition was found to be 43%.
Take CCAGTTCAATACTTTC (sugars k3 d10 k3, PS): the target mRNA inhibition came out at 13%.
With TAGTCTGAAGAATACC (sugars k3 d10 k3, PS), the target mRNA inhibition came to 23%.
The figure for CGTAAACACCCTCATC (sugars k3 d10 k3, PS) is 32%.
With CAGGAACAAGTCCTAC (sugars k3 d10 k3, PS), the target mRNA inhibition came to 19%.
On to TCTCATTTATTTCGGC (sugars k3 d10 k3, PS), for which the target mRNA inhibition was 79% and 93%.
In the case of CAAAACCCCCGGAACT (sugars k3 d10 k3, PS), the target mRNA inhibition amounted to 0%.
The figure for TCAATTTATAGACCCC (sugars k3 d10 k3, PS) is 47%; for CGGAGAACAACTCGCA (sugars k3 d10 k3, PS) it is -4%.
On to TCTTAACTCAAAGTCC (sugars k3 d10 k3, PS), for which the target mRNA inhibition was 39%.
On to TAACATGCAATACTGC (sugars k3 d10 k3, PS), for which the target mRNA inhibition worked out at 18%.
The figure for CACGCCAACACAGTTT (sugars k3 d10 k3, PS) is 36%; for CCCAAAAGCTCTATAC (sugars k3 d10 k3, PS) it is 6%.
On to CAGTGCTATTTTATCC (sugars k3 d10 k3, PS), for which the target mRNA inhibition was 78% and 70%.
The figure for GATCGCCTTCAAATTA (sugars k3 d10 k3, PS) is 39%; for AAGTATTACTCTAATC (sugars k3 d10 k3, PS) it is 9%.
As for GGACTCTTTTCCTATC (sugars k3 d10 k3, PS), the target mRNA inhibition was -4%.
For ATACGACTGCTTAAAA (sugars k3 d10 k3, PS), the target mRNA inhibition turned out to be 20%.
CTATAGTCTGAAGAAT (sugars k3 d10 k3, PS): the target mRNA inhibition came to 22%.
The figure for CTCCCAATTAATCTTT (sugars k3 d10 k3, PS) is 27%; for GAAAGTGCTCACAAGG (sugars k3 d10 k3, PS) it is 6%; for GCCAACACAGTTTGCT (sugars k3 d10 k3, PS) it is 30%.
Take AAGCATTCCTTCGGAT (sugars k3 d10 k3, PS): the target mRNA inhibition was -8%.
The figure for TCTAACAGCACATCAT (sugars k3 d10 k3, PS) is 22%; for CAGTTATATTAGGTTC (sugars k3 d10 k3, PS) it is 8%.
On to GACCAACTAAGCGAAT (sugars k3 d10 k3, PS), for which the target mRNA inhibition worked out at 39%.
For the sequence TCTGATCTGCGGCCCC (sugars k3 d10 k3, PS), the target mRNA inhibition is -18%.
GCTAGCTTGGCCAAGT (sugars k3 d10 k3, PS): the target mRNA inhibition amounted to 2%.
For the sequence GAACTAGCACCTGCAG (sugars k3 d10 k3, PS), the target mRNA inhibition is 4%.
On to TTTACTTGCCAACAGA (sugars k3 d10 k3, PS), for which the target mRNA inhibition was 27%.
With GAGTATAAGCCTGAAA (sugars k3 d10 k3, PS), the target mRNA inhibition amounted to 16%.
GGAGGTATGACATATA (sugars k3 d10 k3, PS): the target mRNA inhibition was 68% and 84%.
Regarding CTAAGATGCTAGCTTG (sugars k3 d10 k3, PS), the target mRNA inhibition is -26%.
Regarding AGAGCTACTTAGCTGT (sugars k3 d10 k3, PS), the target mRNA inhibition worked out at 16%.
In the case of CGACCTCACGGATTTT (sugars k3 d10 k3, PS), the target mRNA inhibition amounted to 16%.
Take CTATAAGGACAGCTAA (sugars k3 d10 k3, PS): the target mRNA inhibition was 4%.
The result for TTAAAGAGTGTTCGCA (sugars k3 d10 k3, PS) reads 59% and 39%; that for TCTACAAGTTACATGT (sugars k3 d10 k3, PS), 23%.
As to TTCTGAACCGGAGCAG (sugars k3 d10 k3, PS), the target mRNA inhibition is 23%.
In the case of GAATACTCTTCCAAGG (sugars k3 d10 k3, PS), the target mRNA inhibition was 16%.
For the sequence TACCCCAACTAAACAT (sugars k3 d10 k3, PS), the target mRNA inhibition stood at 18%.
For the sequence TTGCCCGCTTTCCCCC (sugars k3 d10 k3, PS), the target mRNA inhibition turned out to be 19%.
In the case of TAAGAGACATTCAAGC (sugars k3 d10 k3, PS), the target mRNA inhibition is 17%.
In the case of ACCAAATCGCACTGGC (sugars k3 d10 k3, PS), the target mRNA inhibition worked out at 3%.
Regarding TACTTAGCTGTGGTTT (sugars k3 d10 k3, PS), the target mRNA inhibition was 23%.
The figure for AGCTTCAACTGGGAAT (sugars k3 d10 k3, PS) is 13%; for TGCTTACACACAACTG (sugars k3 d10 k3, PS) it is 35%.
The result for TGACTGAATATGAACC (sugars k3 d10 k3, PS) reads 41%.
Regarding CCTGAAGACAGATTAG (sugars k3 d10 k3, PS), the target mRNA inhibition turned out to be 24%.
The figure for GCGGACTTTCTCCCCC (sugars k3 d10 k3, PS) is -24%.
Turning to CAACCGTAACAGGCCA (sugars k3 d10 k3, PS), the target mRNA inhibition was determined as 23%.
Regarding TGCAGGCAAATTAATG (sugars k3 d10 k3, PS), the target mRNA inhibition came to 11%.
As for CATTACCCCAACTAAA (sugars k3 d10 k3, PS), the target mRNA inhibition came to 15%.
As to AGCGGGATCAGAACAG (sugars k3 d10 k3, PS), the target mRNA inhibition is 43%.
The result for AGCCACTCAAATGCCT (sugars k3 d10 k3, PS) reads 28%; that for AAATCCCCTAGGGAAG (sugars k3 d10 k3, PS), -8%; that for GGGAACACAACTTTTA (sugars k3 d10 k3, PS), 33%.
On to TGTTAAGACCATCCCA (sugars k3 d10 k3, PS), for which the target mRNA inhibition was 9%.
On to CAGGCAAATTAATGGC (sugars k3 d10 k3, PS), for which the target mRNA inhibition is 23%.
On to GTGGCCTTGGCACACT (sugars k3 d10 k3, PS), for which the target mRNA inhibition is -10%.
Take GCGGTACACTCCTTCT (sugars k3 d10 k3, PS): the target mRNA inhibition was 28%.
The figure for ACGGTTGAGAAGTGGC (sugars k3 d10 k3, PS) is 22%; for TCCTTAGTTGGCATCA (sugars k3 d10 k3, PS) it is 76% and 68%; for CTAACATGCAATACTG (sugars k3 d10 k3, PS) it is 1%.
GTATGCTGATAAACTC (sugars k3 d10 k3, PS): the target mRNA inhibition was found to be 52%.

These data come from the OligoGym collection.
